Measurements published in paper PMC3158281 (Nature chemical biology, 2011).
One block for each molecule: values may come before it. Square brackets hold non-standard residues; d marks the D form. Ends that are not written are not given here. * marks the point of attachment. FITC = O=C1OC2(c3ccc(O)cc3Oc3cc(O)ccc32)c2ccc(NC(=S)*)cc21; Pmab = not defined here; PEG = not defined here

Experiments:
HeLa cells = experiment: Mitotic arrest and apoptotic cell death in cultured HeLa cells; assay type: cell-based, human; conditions: 100 nM
peptide 9 = target: T1, peptide 9 (synthetic construct, not fully specified (residue 3); reading uncertain); experiment: fluorescence polarization
T1 chain: {FITC-PEG}-PLHS[Pmab]

Molecule: CC[C@@H]1C(=O)N(C)c2cnc(Nc3ccc(C(=O)NC4CCN(C)CC4)cc3OC)nc2N1C1CCCC1 [BI 2536]
induction of mitotic arrest and apoptotic cell death (HeLa cells): induced a greatly delayed, but pronounced mitotic arrest and apoptotic cell death

Kd (peptide 9): 460 nM
B1: Plk3 PBD PBD (protein)
chain: WVSKWVDYSNKFGFGYQLSSRRVAVLFNDGTHMALSANRKTVHYNPTSTKHFSFSVGAVPRALQPQLGILRYFASYMEQHLMKGGDLPSVEEVEVPAPPLLLQWVKTDQALLMLFSDGTVQVNFYGDHTKLILSGWEPLLVTFVARNRSACTYLASHLRQLGCSPDLRQRLRYALRLLRDRSP
